Measurements from patent US20260144769A1, “4-PHENYLBUTYRATE RESTORED GABA UPTAKE AND REDUCED SEIZURES IN SLC6A1 VARIANT-MEDIATED DISORDERS” (Vanderbilt University, priority 2022, published 2026).

Tests used:
[1] = test system: GAT-1; assay: GAT-1 protein expression in brain regions of SLC6A1^+/A288V heterozygous mice; type: in vivo, mouse; details: A288V het; cerebellum; PBA 100 mg/kg, 7 days
Description: (§1) FIGS. 8C-D show integrated density values (IDVs) for total GAT-1 from wild-type and het KI were normalized to the Na^+/K^+ ATPase or anti-glyceraldehyde-3-phosphate dehydrogenase (GAPDH) loading control (LC) in each specific brain region and plotted. N=4 from 4 pairs of mice. […] The vehicle treated in each brain region was taken as 1. N=4 from 4 pairs of mice for FIG. 8C, FIG. 8D, FIG. 8G and FIG. 8H, Values were expressed as mean±S.E.M. One way ANOVA or unpaired t test.
(§2) The working solution was stored at 4° C.
(§3) Data were expressed as mean±SEM. Proteins were quantified by Odyssey software and data were normalized to loading controls and then to the wildtype subunit protein, which was arbitrarily taken as 1 in each experiment. Fluorescence intensities from confocal microscopy experiments were determined using MetaMorph imaging software, and the measurements were carried out in ImageJ. For statistical significance, one-way or two-way analysis of variance (ANOVA) with post hoc Dunnett or Newman-Keuls test were used. In some cases, unpaired t-test or one sample t-test was performed (GraphPad Prism, La Jolla, CA), and statistical significance was taken as p<0.05.

[2] = test system: neural progenitor cells; assay: GABA uptake in neural progenitor cells; type: cell-based; details: NPCs; data not shown
Protocol: NPCs were differentiated from iPSCs at passage 22-24 with differentiation of neural progenitor cells (NPCs) was induced by STEMdiff SMADi Neural induction kit from […]. iPSCs were seeded in a Geltrex coated dish at a density of ˜2×10^6 cells/per one 35 mm^2 dish or 6 well plate. The medium was refreshed daily, and the cells were passaged at day 5-7. NPCs at Passage 1 which was at least 10-12 days after neural induction were used for this study.
Briefly, cells were cultured in […] dishes for 3 days before the GABA uptake experiment in DMEM with 10% fetal bovine serum and 1% penicillin/streptomycin. The cells were then transfected with equal amounts of the wildtype or the mutant GAT-1 cDNAs (1 μg) for each condition at 24 hrs or 48 hrs after plating. GABA uptake assay was carried out 48 hrs after transfection. The cells were incubated with preincubation solution for 15 min and then incubated with preincubation solution containing 1 μci/mL 3H GABA and 10 μM unlabeled GABA for 30 min at room temperature. After washing, the cells were lysed with 0.25 N NaOH for 1 hr. Glacial acetic acid was added, and lysates were then determined on a liquid scintillator with QuantaSmart. The flux of GABA (pmol/μg/min) was averaged with at least triplets for each condition at each transfection. The average counting was taken as n=1. […]

[3] = test system: GAT-1; assay: GAT-1 protein expression in brain regions of SLC6A1^+/S295L heterozygous mice; type: in vivo, mouse; details: S295L het; cerebellum; PBA 100 mg/kg, 7 days
Description: as §1, §2, §3

[4] = target: GAT-1 L460R (Rattus norvegicus, UniProt P23978, L460R); assay: 3H GABA uptake, HEK293T, mutant cDNA alone ("homozygous"); type: cell-based; design: The coding region of rGAT-1 was inserted into pEYFP-C1 (Clontech, Palo Alto, CA); expressed in transfected cells; host or cells: HEK293T cells; details: PBA 2 mM, 24 hrs
Protocol: GABA uptake activity was measured by the high-throughput 3H radio-labeling GABA uptake on a liquid scintillator with QuantaSmart. […] HEK293T cells were transfected with the wildtype or the mutant GAT-1^YFP cDNAs alone for 48 hr. […] HEK293T cells were transfected with the wildtype GAT-1^YFP alone or in mixture of the wildtype or the mutant cDNAs for 48 hr. In the mixed condition, the ratio of the wildtype GAT-1 with pcDNA or the mutant cDNAs are 1:1 with the total cDNA amount of 0.5 μg. […] Both wt and the mutant were normalized to its own DMSO treated conditions. 966 stands for the wildtype treated with CI-966 (50 μM) while 711 stands for NNC-711 (35 μM). (N=4-7 different transfections. In FIG. 4A and FIG. 4B, *P<0.05, **P<0.01, ***p<0.001 vs. wt 0. In FIG. C and FIG. 4D, *P<0.05, **P<0.01, ***p<0.001 vs. its own DMSO treated. In FIG. 4C, ns stands for no significance. One-way analysis of variance (ANOVA) and Newman-Keuls test. Values were expressed as mean±S.E.M.
The plasmid cDNA encoding enhanced yellow fluorescent protein (EYFP)-tagged rat GAT-1 has been previously described. […]
Briefly, cells were cultured in […] dishes for 3 days before the GABA uptake experiment in DMEM with 10% fetal bovine serum and 1% penicillin/streptomycin. […] Glacial acetic acid was added, and lysates were then determined on a liquid scintillator with QuantaSmart. […]

GABA uptake normalized to its own DMSO treated condition [4]: 1.14±0.07
SMILES: O=C(O)CCCc1ccccc1 [PBA, 4-phenylbutyric acid]
GAT-1 expression vs. same brain region of vehicle treated mice taken as 1 [1]: 1.045±0.028 | GABA uptake in neural progenitor cells after PBA treatment [2]: increase | GAT-1 expression vs. same brain region of vehicle treated mice taken as 1 [3]: 1.03±0.03
